Assay results reported in ChEMBL document CHEMBL1127385, “Synthesis and diuretic activity of alkyl- and arylguanidine analogs of N,N'-dicyclohexyl-4-morpholinecarboxamidine in rats and dogs” (J Med Chem, 1994).

How the values were obtained:
Settings in all cases: in vivo, po
Rattus norvegicus [1] = experiment: Total electrolytic excretion of sodium in urine of rats after peroral administration of 65.2 uM/Kg of drug; assay type: ADME, organism-based
Rattus norvegicus [2] = experiment: Total electrolytic excretion of sodium in urine of rats after peroral administration of 217 uM/Kg of drug; assay type: ADME, organism-based
Rattus norvegicus [3] = experiment: Total electrolytic excretion of sodium in urine of rats after peroral administration of 21.7 uM/Kg of drug; assay type: ADME, organism-based
Rattus norvegicus [4] = experiment: Ratio of Total electrolytic excretion of sodium and potassium in urine of rats after peroral administration of 217 uM/Kg of drug; assay type: ADME, organism-based
Rattus norvegicus [5] = experiment: Tested for the diuretic activity by measuring the urinary volume after peroral administering 217 uM/Kg of drug in rats; assay type: ADME, organism-based, Urine
Rattus norvegicus [6] = experiment: Total electrolytic excretion of potassium in urine of rats after peroral administration of 21.7 uM/Kg of drug; assay type: ADME, organism-based
Rattus norvegicus [7] = experiment: Ratio of Total electrolytic excretion of sodium and potassium in urine of rats after peroral administration of 21.7 uM/Kg of drug; assay type: ADME, organism-based
Rattus norvegicus [8] = experiment: Total electrolytic excretion of chlorine in urine of rats after peroral administration of 217 uM/Kg of drug; assay type: ADME, organism-based
Rattus norvegicus [9] = experiment: Total electrolytic excretion of chlorine in urine of rats after peroral administration of 21.7 uM/Kg of drug; assay type: ADME, organism-based
Rattus norvegicus [10] = experiment: Ratio of Total electrolytic excretion of sodium and potassium in urine of rats after peroral administration of 65.2 uM/Kg of drug; assay type: ADME, organism-based
Rattus norvegicus [11] = experiment: Total electrolytic excretion of potassium in urine of rats after peroral administration of 217 uM/Kg of drug; assay type: ADME, organism-based
Rattus norvegicus [12] = experiment: Tested for the diuretic activity by measuring the urinary volume after peroral administering 21.7 uM/Kg of drug in rats; assay type: ADME, organism-based, Urine
Rattus norvegicus [13] = experiment: Total electrolytic excretion of potassium in urine of rats after peroral administration of 65.2 uM/Kg of drug; assay type: ADME, organism-based
Rattus norvegicus [14] = experiment: Tested for the diuretic activity by measuring the urinary volume after peroral administering 65.2 uM/Kg of drug in rats; assay type: ADME, organism-based, Urine
Rattus norvegicus [15] = experiment: Total electrolytic excretion of chlorine in urine of rats after peroral administration of 65.2 uM/Kg of drug; assay type: ADME, organism-based
Rattus norvegicus [16] = experiment: Total electrolytic excretion of sodium in urine of rats after peroral administration of 71.8 uM/Kg of drug; assay type: ADME, organism-based
Rattus norvegicus [17] = experiment: Total electrolytic excretion of sodium in urine of rats after peroral administration of 239 uM/Kg of drug; assay type: ADME, organism-based
Rattus norvegicus [18] = experiment: Total electrolytic excretion of chlorine in urine of rats after peroral administration of 71.8 uM/Kg of drug; assay type: ADME, organism-based
Rattus norvegicus [19] = experiment: Total electrolytic excretion of chlorine in urine of rats after peroral administration of 23.9 uM/Kg of drug; assay type: ADME, organism-based
Rattus norvegicus [20] = experiment: Tested for the diuretic activity by measuring the urinary volume after peroral administering 23.9 uM/Kg of drug in rats; assay type: ADME, organism-based, Urine
Rattus norvegicus [21] = experiment: Total electrolytic excretion of potassium in urine of rats after peroral administration of 23.9 uM/Kg of drug; assay type: ADME, organism-based
Rattus norvegicus [22] = experiment: Tested for the diuretic activity by measuring the urinary volume after peroral administering 239 uM/Kg of drug in rats; assay type: ADME, organism-based, Urine
Rattus norvegicus [23] = experiment: Total electrolytic excretion of potassium in urine of rats after peroral administration of 239 uM/Kg of drug; assay type: ADME, organism-based
Rattus norvegicus [24] = experiment: Tested for the diuretic activity by measuring the urinary volume after peroral administering 71.8 uM/Kg of drug in rats; assay type: ADME, organism-based, Urine
Rattus norvegicus [25] = experiment: Ratio of Total electrolytic excretion of sodium and potassium in urine of rats after peroral administration of 23.9 uM/Kg of drug; assay type: ADME, organism-based
Rattus norvegicus [26] = experiment: Total electrolytic excretion of potassium in urine of rats after peroral administration of 71.8 uM/Kg of drug; assay type: ADME, organism-based
Rattus norvegicus [27] = experiment: Total electrolytic excretion of chlorine in urine of rats after peroral administration of 239 uM/Kg of drug; assay type: ADME, organism-based
Rattus norvegicus [28] = experiment: Total electrolytic excretion of sodium in urine of rats after peroral administration of 23.9 uM/Kg of drug; assay type: ADME, organism-based
Rattus norvegicus [29] = experiment: Ratio of Total electrolytic excretion of sodium and potassium in urine of rats after peroral administration of 71.8 uM/Kg of drug; assay type: ADME, organism-based
Rattus norvegicus [30] = experiment: Ratio of Total electrolytic excretion of sodium and potassium in urine of rats after peroral administration of 239 uM/Kg of drug; assay type: ADME, organism-based

## Clc1ccc(CN/C(=N/C2CCCCC2)N2CCOCC2)cc1Cl
Rattus norvegicus [1]
  Excretion Na+: 1.55 m equiv
Rattus norvegicus [2]
  Excretion Na+: 1.59 m equiv
Rattus norvegicus [3]
  Excretion Na+: 0.96 m equiv
Rattus norvegicus [4]
  Ratio: 10.9
Rattus norvegicus [5]
  V: 8.7 mL
Rattus norvegicus [6]
  Excretion K+: 0.25 m equiv
Rattus norvegicus [7]
  Ratio: 3.8
Rattus norvegicus [8]
  Excretion Cl-: 1.39 m equiv
Rattus norvegicus [9]
  Excretion Cl-: 1.05 m equiv
Rattus norvegicus [10]
  Ratio: 5.9
Rattus norvegicus [11]
  Excretion K+: 0.15 m equiv
Rattus norvegicus [12]
  V: 6.4 mL
Rattus norvegicus [13]
  Excretion K+: 0.26 m equiv
Rattus norvegicus [14]
  V: 9.3 mL
Rattus norvegicus [15]
  Excretion Cl-: 1.44 m equiv

## FC(F)(F)c1cccc(N/C(=N/C2CCCCC2)N2CCOCC2)c1
Rattus norvegicus [16]
  Excretion Na+: 1.46 m equiv
Rattus norvegicus [17]
  Excretion Na+: 2.02 m equiv
Rattus norvegicus [18]
  Excretion Cl-: 1.59 m equiv
Rattus norvegicus [19]
  Excretion Cl-: 1.17 m equiv
Rattus norvegicus [20]
  V: 6.6 mL
Rattus norvegicus [21]
  Excretion K+: 0.39 m equiv
Rattus norvegicus [22]
  V: 14 mL
Rattus norvegicus [23]
  Excretion K+: 0.45 m equiv
Rattus norvegicus [24]
  V: 9.5 mL
Rattus norvegicus [25]
  Ratio: 2.6
Rattus norvegicus [26]
  Excretion K+: 0.32 m equiv
Rattus norvegicus [27]
  Excretion Cl-: 2.03 m equiv
Rattus norvegicus [28]
  Excretion Na+: 1.02 m equiv
Rattus norvegicus [29]
  Ratio: 4.6
Rattus norvegicus [30]
  Ratio: 4.5
